From ChEMBL document CHEMBL1201862, “PubChem BioAssay data set” (2004)
The source made the active and inactive calls.

What was measured:
[1] = molecular target: Induced myeloid leukemia cell differentiation protein Mcl-1 (Homo sapiens, UniProt Q07820); assay type: functional
[2] = molecular target: T1, Replicative DNA helicase DnaB (Mycobacterium tuberculosis, UniProt P9WMR3); test: DnaB intein splicing inhibitors, dose response, biochemical, cell-free fluorescence (AID 449749); assay type: functional
T1 sequence (P9WMR3 whole entry): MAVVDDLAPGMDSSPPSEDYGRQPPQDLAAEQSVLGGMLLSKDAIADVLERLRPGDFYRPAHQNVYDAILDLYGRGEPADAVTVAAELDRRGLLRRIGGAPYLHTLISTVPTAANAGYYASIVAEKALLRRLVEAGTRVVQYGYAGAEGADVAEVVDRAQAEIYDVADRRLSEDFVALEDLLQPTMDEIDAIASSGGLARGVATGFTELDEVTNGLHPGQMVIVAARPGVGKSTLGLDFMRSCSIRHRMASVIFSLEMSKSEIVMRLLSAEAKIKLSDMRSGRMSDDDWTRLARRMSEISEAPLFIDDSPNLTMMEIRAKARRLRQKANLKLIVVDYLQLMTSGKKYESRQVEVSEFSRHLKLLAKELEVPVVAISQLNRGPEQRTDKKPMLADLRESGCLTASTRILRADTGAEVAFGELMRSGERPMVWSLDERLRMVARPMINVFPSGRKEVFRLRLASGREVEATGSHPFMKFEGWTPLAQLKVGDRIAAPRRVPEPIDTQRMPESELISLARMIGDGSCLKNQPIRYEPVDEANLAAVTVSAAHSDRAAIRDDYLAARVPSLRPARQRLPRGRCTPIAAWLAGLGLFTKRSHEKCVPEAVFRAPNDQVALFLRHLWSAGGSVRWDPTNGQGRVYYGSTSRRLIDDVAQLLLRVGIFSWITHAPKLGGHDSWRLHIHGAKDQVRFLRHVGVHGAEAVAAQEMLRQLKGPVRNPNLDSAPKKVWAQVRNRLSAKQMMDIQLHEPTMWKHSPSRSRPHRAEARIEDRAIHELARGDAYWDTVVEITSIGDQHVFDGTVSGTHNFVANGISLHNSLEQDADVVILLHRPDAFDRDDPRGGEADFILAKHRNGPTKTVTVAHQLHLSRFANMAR

Protein RecA = molecular target: T2, Protein RecA (Mycobacterium tuberculosis, UniProt P9WHJ3); test: Fluorescence Cell-Free Homogeneous Dose Retest to Identify Inhibitors of RecA-Intein Splicing Activity. [Related pubchem assays (depositor defined):AID2097, AID2223, AID489010, AID492950]; assay type: functional
T2 sequence (P9WHJ3 whole entry): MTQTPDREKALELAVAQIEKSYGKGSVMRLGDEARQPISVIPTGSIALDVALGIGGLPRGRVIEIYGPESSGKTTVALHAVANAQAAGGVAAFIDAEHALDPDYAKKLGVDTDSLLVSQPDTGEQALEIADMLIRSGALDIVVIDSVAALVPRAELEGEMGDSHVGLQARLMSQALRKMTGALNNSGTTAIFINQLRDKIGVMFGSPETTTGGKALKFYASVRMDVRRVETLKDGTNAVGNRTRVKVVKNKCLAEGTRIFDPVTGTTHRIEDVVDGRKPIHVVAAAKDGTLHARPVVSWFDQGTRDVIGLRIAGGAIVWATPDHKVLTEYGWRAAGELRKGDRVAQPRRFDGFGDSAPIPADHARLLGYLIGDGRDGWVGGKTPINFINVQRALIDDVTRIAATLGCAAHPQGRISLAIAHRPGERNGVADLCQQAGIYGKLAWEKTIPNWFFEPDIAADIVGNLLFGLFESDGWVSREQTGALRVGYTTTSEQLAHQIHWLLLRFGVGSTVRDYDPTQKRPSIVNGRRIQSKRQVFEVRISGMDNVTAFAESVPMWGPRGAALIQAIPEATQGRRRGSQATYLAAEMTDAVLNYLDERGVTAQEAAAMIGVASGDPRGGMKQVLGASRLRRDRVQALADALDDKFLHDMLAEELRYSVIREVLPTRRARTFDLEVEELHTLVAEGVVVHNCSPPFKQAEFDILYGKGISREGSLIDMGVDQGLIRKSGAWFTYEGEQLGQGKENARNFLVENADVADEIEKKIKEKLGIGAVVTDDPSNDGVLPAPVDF

[3] = luciferase reporter signal suppression in cells – H4 neuroglioma cells, luminescence, dose response (AID 1990); assay type: functional, cell-based
[4] = molecular target: Luciferin 4-monooxygenase (Photinus pyralis, UniProt P08659); test: Counter Screen for Luciferase-based Assay Positives. [Related pubchem assays: 620, 618, 411 ]
Chain of Luciferin 4-monooxygenase (P08659 whole entry): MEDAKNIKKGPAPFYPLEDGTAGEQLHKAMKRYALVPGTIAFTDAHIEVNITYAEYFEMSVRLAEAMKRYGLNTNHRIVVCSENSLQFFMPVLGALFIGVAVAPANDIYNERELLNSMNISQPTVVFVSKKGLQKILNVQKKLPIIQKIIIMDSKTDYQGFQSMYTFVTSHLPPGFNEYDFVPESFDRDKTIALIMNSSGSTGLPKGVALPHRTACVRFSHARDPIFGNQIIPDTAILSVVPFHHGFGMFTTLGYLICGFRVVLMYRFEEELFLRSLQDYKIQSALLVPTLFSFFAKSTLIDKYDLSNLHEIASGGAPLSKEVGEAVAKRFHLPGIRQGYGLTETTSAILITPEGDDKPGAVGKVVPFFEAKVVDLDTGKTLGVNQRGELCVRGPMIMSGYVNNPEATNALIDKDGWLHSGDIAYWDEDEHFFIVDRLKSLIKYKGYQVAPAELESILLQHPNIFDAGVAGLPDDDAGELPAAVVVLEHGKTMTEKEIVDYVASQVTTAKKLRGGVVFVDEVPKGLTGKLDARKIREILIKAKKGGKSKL

[5] = Luminescence Cell-Based Dose Response HTS to Identify Inhibitors of 5'UTR Stem-Loop Driven Prion Protein mRNA Translation in H4 Neuroglioblastoma Cells. [Related pubchem assays: 1827 (Project Summary), 1813 (Primary HTS)]; assay type: functional
[6] = molecular target: T3, Heat shock factor protein 1 (Mus musculus, UniProt P38532); test: decrease of HSF1-responsive luciferase luminescence – cell-based, NIH3T3, dose retest, confirmation (AID 2382); assay type: functional;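 also: NIH3T3 fibroblasts with HSF1-driven luciferase reporter stressed by proteasome inhibitor MG132; luminescence from HSF1-driven luciferase expression after 8 hours of MG132 stress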
T3 sequence (P38532 whole entry): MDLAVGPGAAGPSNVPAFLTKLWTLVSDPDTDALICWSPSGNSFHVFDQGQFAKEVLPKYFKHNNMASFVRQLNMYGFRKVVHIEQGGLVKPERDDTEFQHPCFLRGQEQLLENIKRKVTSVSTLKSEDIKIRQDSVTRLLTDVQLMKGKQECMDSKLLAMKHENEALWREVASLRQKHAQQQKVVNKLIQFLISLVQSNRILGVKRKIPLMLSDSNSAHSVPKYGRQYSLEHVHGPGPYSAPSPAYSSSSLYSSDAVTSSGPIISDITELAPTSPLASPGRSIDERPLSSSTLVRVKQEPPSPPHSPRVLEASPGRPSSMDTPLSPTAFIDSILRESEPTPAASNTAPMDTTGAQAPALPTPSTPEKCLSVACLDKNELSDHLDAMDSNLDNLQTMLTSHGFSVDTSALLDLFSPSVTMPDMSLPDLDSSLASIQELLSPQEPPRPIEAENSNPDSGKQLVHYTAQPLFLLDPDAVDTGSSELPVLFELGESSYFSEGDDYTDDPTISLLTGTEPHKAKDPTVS

[7] = alpha-synuclein stem-loop luciferase translation blockers – H4 neuroglioma cells, luminescence, confirmation (AID 1988); assay type: functional, cell-based
HT-1080 = test: HT1080 cell viability loss – fluorescence readout (AID 620); assay type: functional, cell-based; details: Homo sapiens
[8] = molecular target: T4, Rac GTPase-activating protein 1 (Homo sapiens, UniProt Q9H0H5); test: blockers of MgcRacGAP-driven Rac1 GTP hydrolysis – biochemical, ADP Hunter fluorescence, primary and confirmatory, confirmation (AID 624330); assay type: functional
T4 sequence (Q9H0H5 whole entry): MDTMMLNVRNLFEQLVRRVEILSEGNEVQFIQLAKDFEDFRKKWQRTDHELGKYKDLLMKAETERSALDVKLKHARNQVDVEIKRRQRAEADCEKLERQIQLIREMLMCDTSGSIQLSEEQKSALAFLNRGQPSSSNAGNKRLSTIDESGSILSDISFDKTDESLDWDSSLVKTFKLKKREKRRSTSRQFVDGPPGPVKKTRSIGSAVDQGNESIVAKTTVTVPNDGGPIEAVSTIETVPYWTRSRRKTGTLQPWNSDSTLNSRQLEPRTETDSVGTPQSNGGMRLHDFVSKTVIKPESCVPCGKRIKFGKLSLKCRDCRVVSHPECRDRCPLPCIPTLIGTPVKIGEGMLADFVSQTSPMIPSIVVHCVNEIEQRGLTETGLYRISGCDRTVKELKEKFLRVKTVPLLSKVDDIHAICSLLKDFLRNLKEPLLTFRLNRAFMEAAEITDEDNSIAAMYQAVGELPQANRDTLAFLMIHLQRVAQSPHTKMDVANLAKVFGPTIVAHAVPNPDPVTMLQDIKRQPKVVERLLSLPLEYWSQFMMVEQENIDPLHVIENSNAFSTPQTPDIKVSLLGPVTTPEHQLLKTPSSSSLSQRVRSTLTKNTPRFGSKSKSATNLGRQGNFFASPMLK

[9] = Luminescence Cell-Based Dose Confirmation HTS to Identify Activators of 5'UTR Stem-Loop Driven Alpha-Synuclein mRNA Translation in H4 Neuroglioblastoma Cells. [Related pubchem assays: 1829 (Project Summary), 1814 (Primary HTS)]; assay type: functional
[10] = Luminescence Cell-Based Dose Response HTS to Identify Activators of Luciferase Translation or Activity in H4 […] Cells. [Related pubchem assays: 1829 (Project Summary), 1814 (Primary HTS)]; assay type: functional
H4 = test: Luminescence Cell-Based Dose Response HTS to Identify Activators of 5'UTR Stem-Loop Driven Prion Protein mRNA Translation in H4 Neuroglioblastoma Cells. [Related pubchem assays: 1829 (Project Summary), 1814 (Primary HTS)]; assay type: functional; details: Homo sapiens
Protein skinhead-1 = molecular target: T5, Protein skinhead-1 (Caenorhabditis elegans, UniProt P34707); assay type: functional
T5 sequence (P34707 whole entry): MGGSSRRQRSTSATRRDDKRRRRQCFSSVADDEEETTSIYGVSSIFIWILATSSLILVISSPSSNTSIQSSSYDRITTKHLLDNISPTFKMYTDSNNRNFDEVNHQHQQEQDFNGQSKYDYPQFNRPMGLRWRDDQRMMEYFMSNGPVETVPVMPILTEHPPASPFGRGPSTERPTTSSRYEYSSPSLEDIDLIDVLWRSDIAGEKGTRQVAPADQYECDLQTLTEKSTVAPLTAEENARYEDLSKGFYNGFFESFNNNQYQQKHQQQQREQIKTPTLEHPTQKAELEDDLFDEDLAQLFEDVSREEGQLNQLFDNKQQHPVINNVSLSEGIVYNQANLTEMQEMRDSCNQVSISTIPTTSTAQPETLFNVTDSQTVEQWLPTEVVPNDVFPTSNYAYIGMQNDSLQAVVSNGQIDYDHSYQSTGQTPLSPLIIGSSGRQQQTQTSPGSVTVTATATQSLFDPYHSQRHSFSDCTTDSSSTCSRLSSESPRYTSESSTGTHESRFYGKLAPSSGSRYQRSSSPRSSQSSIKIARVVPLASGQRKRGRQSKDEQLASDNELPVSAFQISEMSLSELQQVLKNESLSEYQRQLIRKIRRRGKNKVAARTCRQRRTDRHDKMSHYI

Estrogen receptor = molecular target: T6, Estrogen receptor (Homo sapiens, UniProt P03372);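 also: potency for inhibiting coactivator peptide recruitment to the receptor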
T6 sequence (P03372 whole entry): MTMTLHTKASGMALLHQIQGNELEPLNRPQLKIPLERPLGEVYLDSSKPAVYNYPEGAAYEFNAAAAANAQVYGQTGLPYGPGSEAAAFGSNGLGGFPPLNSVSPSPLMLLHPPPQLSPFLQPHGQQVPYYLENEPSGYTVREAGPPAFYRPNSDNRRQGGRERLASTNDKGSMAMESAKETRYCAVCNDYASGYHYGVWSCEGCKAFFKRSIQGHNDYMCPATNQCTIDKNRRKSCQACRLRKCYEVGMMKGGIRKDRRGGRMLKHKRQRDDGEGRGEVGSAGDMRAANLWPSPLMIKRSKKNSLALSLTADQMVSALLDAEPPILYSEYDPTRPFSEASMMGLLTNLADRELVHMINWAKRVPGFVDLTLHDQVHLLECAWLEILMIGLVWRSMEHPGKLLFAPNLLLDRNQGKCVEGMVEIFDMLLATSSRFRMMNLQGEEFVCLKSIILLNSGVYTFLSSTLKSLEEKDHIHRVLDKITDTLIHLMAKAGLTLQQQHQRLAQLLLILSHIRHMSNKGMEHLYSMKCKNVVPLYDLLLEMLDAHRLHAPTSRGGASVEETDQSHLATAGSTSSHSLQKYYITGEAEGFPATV

[11] = Trypanosoma cruzi growth suppression in host cells – NIH3T3 host cells, beta-gal luminescence, confirmation (AID 2044); assay type: functional, cell-based;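 also: intracellular parasites grown in NIH/3T3 mouse fibroblasts as host cells; luminescent beta-galactosidase reporter signal from transgenic T. cruzi replicating inside host cells; inhibitors lower the luminescence signal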
[12] = NIH3T3 cell viability loss – ATP luminescence, mouse fibroblasts, counter-screen, dose response (AID 2010); assay type: functional, cell-based;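 also: cells exposed to compound for about 90 hours before reading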
[13] = blockers of bursicon-stimulated LGR2 cAMP reporter – cell-based, HEK293, CRE-luciferase reporter, cherry pick, set 2, dose response (AID 743343); assay type: functional;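 also: transfected cells were stimulated with diluted bursicon conditioned medium after compound addition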
[14] = blockade of melanocortin 4 receptor signaling – cell-based, plate reader, cherry pick, counter-screen for LGR2 antagonist project, dose response (AID 743444); assay type: functional;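 also: transfected HEK 293 cells stimulated with alpha-MSH peptide; potency of inhibitors of the alpha-MSH evoked signal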
[15] = blockers of HIV-1 envelope-mediated cell-cell fusion – cherry-pick, dose response (AID 652057); assay type: functional, cell-based
[16] = blockers of HIV-1 ZM109 envelope-driven cell-cell fusion – HeLa effector, CEM target cells, luciferase, cherry-pick, dose response (AID 652058); assay type: functional, cell-based;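 also: luciferase signal from HIV-1 Env mediated cell-cell fusion of effector and target cells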
[17] = HIV-1 AD8 envelope cell-cell fusion blockers – cherry-pick, dose response (AID 652062); assay type: functional, cell-based;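 also: luciferase signal from cell-cell fusion driven by HIV-1 clade B AD8 Env; potency is for inhibitors of fusion seen as a drop in luminescence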

Chain of Induced myeloid leukemia cell differentiation protein Mcl-1 (Q07820 whole entry): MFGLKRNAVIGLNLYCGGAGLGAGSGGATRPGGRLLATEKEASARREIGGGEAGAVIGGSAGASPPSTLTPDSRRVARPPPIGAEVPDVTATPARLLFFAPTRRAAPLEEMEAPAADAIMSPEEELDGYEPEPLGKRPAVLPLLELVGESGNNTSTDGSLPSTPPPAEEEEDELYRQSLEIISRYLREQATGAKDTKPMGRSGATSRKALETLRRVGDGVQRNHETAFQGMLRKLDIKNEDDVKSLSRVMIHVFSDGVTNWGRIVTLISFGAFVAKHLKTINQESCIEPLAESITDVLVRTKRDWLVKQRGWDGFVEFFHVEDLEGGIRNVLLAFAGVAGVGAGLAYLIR

CCC(=O)N(CC)C1=C(O)C(=O)c2ccccc2C1=O
IC50 [1]: 1.44 µM (active)
AC50 [2]: 14.5 µM (active)
EC50 (Protein RecA): 8.5 µM (active)

O=C(O)CCSc1nnc(-c2ccc3c(c2)OCO3)o1
EC50 [3]: 8.07 µM (active)
EC50 [4]: 27.7 µM (active)
EC50 [5]: > 120 µM (not active)
EC50 [6]: 3.01 µM (active)
EC50 [7]: 10.6 µM (active)
EC50 (HT-1080): > 50 µM (not active)

Cc1ccc(N2CC(C(=O)Nc3ccc(N(C)C)cc3)CC2=O)cc1C (centres undefined)
IC50 [1]: 3.29 µM (not active)
IC50 [8]: 54.2 µM (active)

O=C(Nc1ccc2oc(-c3ccccc3)nc2c1)c1cccs1
EC50 [9]: < 0.1 µM (active)
EC50 [10]: 0.131 µM (active)
EC50 (H4): > 120 µM (not active)

CCOc1ccc(C(=O)Nc2cc(NC(=O)c3ccc(OCC)c(Cl)c3)cc(C(=O)O)c2)cc1Cl
IC50 [1]: 14.3 µM (active)

CCOc1ccc(-c2nnc(-c3ccco3)o2)cc1
EC50 [4]: < 0.2 µM (active)
EC50 (HT-1080): > 50 µM (not active)
IC50 (Protein skinhead-1): 28.9 µM (active)

CSc1ncc2c(n1)-c1cc(C)ccc1SC2
IC50 (Estrogen receptor): > 50 µM (not active)
EC50 [11]: 0.135 µM (active)
EC50 [12]: > 30 µM (not active)

O=C(Nc1ccc(Cl)c(S(=O)(=O)N2CCOCC2)c1)c1ccc2c(c1)OCCO2
AC50 [13]: 37.9 µM (active)
AC50 [14]: 38.9 µM (active)

COc1ccc(OC)c(NC(=O)c2cc(-c3ccc(C)cc3O)[nH]n2)c1
IC50 (Estrogen receptor): 22.1 µM (active)

Cn1cc(C(=O)NC2CCCCCC2)c(=O)c2cc(S(=O)(=O)N3CCCC3)ccc21
IC50 (Estrogen receptor): > 50 µM (not active)

O=C1N=C(NNc2ccccc2)S/C1=C\c1ccccc1
IC50 [1]: 4.76 µM (not active)

C[C@H]1CN([C@@H](C)CO)C(=O)c2cc(NC(=O)Nc3ccc4c(c3)OCO4)ccc2O[C@H]1CN(C)S(=O)(=O)c1ccc(Cl)cc1
AC50 [15]: 1.49 µM (active)
AC50 [16]: 5.25 µM (active)
AC50 [17]: 14.5 µM (active)
